Experimental data taken from patent publication US11370798B2 (Vertex Pharmaceuticals Incorporated, priority 2012, dated 2022).

system: HCT116 colorectal cancer cells; assay: Cisplatin sensitization assay (96 h cell viability MTS); type: cell-based; conditions: compound and Cisplatin added simultaneously, Cisplatin sensitization value;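 note: Test-compound concentration that lowers the Cisplatin IC50 by a set fold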
In short: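 Viability read by MTS (1 h at 37° C) after 96 h co-exposure at 37° C, 5% CO2. Test compound and cisplatin were dosed simultaneously in a full concentration matrix, each 2-fold serially diluted from 10 μM final; sensitization values binned in μM.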

| Compound | Cisplatin Sensitization Assay |
| --- | --- |
| Cc1ncnn1-c1c(F)cncc1NC(=O)c1c(N)nn2cc(F)cnc12 [I-N-242, 2-amino-6-fluoro-N-(5-fluoro-4-(5-methyl-1H-1,2,4-triazol-1-yl)pyridin-3-yl)pyrazolo[1,5-a]pyrimidine-3-carboxamide] | + (Cisplatin sensitization value>0.2 μM but <5 μM) |
| CC1(S(C)(=O)=O)CCN(c2ccncc2NC(=O)c2c(N)nn3cc(F)cnc23)CC1 [I-N-243, 2-amino-6-fluoro-N-(4-(4-methyl-4-(methylsulfonyl)piperidin-1-yl)pyridin-3-yl)pyrazolo[1,5-a]pyrimidine-3-carboxamide] | +++ (Cisplatin sensitization value of <0.02 μM) |
| Nc1nn2cc(F)cnc2c1C(=O)Nc1cnccc1N1CCN2C(=O)CCCC2C1 (stereo not drawn) [I-N-244, 2-amino-6-fluoro-N-(4-(6-oxohexahydro-1H-pyrido[1,2-a]pyrazin-2(6H)-yl)pyridin-3-yl)pyrazolo[1,5-a]pyrimidine-3-carboxamide] | +++ (Cisplatin sensitization value of <0.02 μM) |
| CC(C)N1CCN2CCN(c3ccncc3NC(=O)c3c(N)nn4cc(F)cnc34)CC2C1=O (stereo not drawn) [I-N-245, 2-amino-6-fluoro-N-(4-(8-isopropyl-9-oxohexahydro-1H-pyrazino[1,2-a]pyrazin-2(6H)-yl)pyridin-3-yl)pyrazolo[1,5-a]pyrimidine-3-carboxamide] | ++ (Cisplatin sensitization value>0.02 μM but <0.2 μM) |
| Nc1nn2cc(F)cnc2c1C(=O)Nc1cncc(F)c1N1CCCC1 [I-N-246, 2-amino-6-fluoro-N-(5-fluoro-4-(pyrrolidin-1-yl)pyridin-3-yl)pyrazolo[1,5-a]pyrimidine-3-carboxamide] | ++ (Cisplatin sensitization value>0.02 μM but <0.2 μM) |
| Nc1nn2cc(F)cnc2c1C(=O)Nc1cnccc1N1CCN2[C@@H](CCS2(=O)=O)C1 [I-N-247, (S)-2-amino-N-(4-(1,1-dioxidotetrahydro-2H-isothiazolo[2,3-a]pyrazin-5(3H)-yl)pyridin-3-yl)-6-fluoropyrazolo[1,5-a]pyrimidine-3-carboxamide] | +++ (Cisplatin sensitization value of <0.02 μM) |
| Nc1nn2cc(F)cnc2c1C(=O)Nc1cncc(F)c1N1CCN2C(=O)OC[C@@H]2C1 [I-N-248, (S)-2-amino-6-fluoro-N-(5-fluoro-4-(3-oxotetrahydro-1H-oxazolo[3,4-a]pyrazin-7(3H)-yl)pyridin-3-yl)pyrazolo[1,5-a]pyrimidine-3-carboxamide] | ++ (Cisplatin sensitization value>0.02 μM but <0.2 μM) |
| Nc1nn2cc(F)cnc2c1C(=O)Nc1cnccc1N1CCN(C(=O)C2COC2)CC1 [I-N-249] | +++ (Cisplatin sensitization value of <0.02 μM) |
| Nc1nn2cc(F)cnc2c1C(=O)Nc1cncc(F)c1N1CCS(=O)(=O)CC1 [I-N-250, 2-amino-N-(4-(1,1-dioxidothiomorpholino)-5-fluoropyridin-3-yl)-6-fluoropyrazolo[1,5-a]pyrimidine-3-carboxamide] | ++ (Cisplatin sensitization value>0.02 μM but <0.2 μM) |
| CC(=O)N1CC2(CCN(c3ccncc3NC(=O)c3c(N)nn4cc(F)cnc34)CC2)C1 [I-N-251, N-(4-(2-acetyl-2,7-diazaspiro[3.5]nonan-7-yl)pyridin-3-yl)-2-amino-6-fluoropyrazolo[1,5-a]pyrimidine-3-carboxamide] | +++ (Cisplatin sensitization value of <0.02 μM) |
| CC1(C)CN(c2ccncc2NC(=O)c2c(N)nn3cc(F)cnc23)CCS1(=O)=O [I-N-252, 2-amino-N-(4-(2,2-dimethyl-1,1-dioxidothiomorpholino)pyridin-3-yl)-6-fluoropyrazolo[1,5-a]pyrimidine-3-carboxamide] | +++ (Cisplatin sensitization value of <0.02 μM) |
| Nc1nn2cc(F)cnc2c1C(=O)Nc1cnccc1N1CCCC2(COC2)C1 [I-N-253, N-(4-(2-oxa-6-azaspiro[3.5]nonan-6-yl)pyridin-3-yl)-2-amino-6-fluoropyrazolo[1,5-a]pyrimidine-3-carboxamide] | +++ (Cisplatin sensitization value of <0.02 μM) |
| Nc1nn2cc(F)cnc2c1C(=O)Nc1cnccc1N1CCC2(CCNC2)CC1 [I-N-255, N-(4-(2,8-diazaspiro[4.5]decan-8-yl)pyridin-3-yl)-2-amino-6-fluoropyrazolo[1,5-a]pyrimidine-3-carboxamide] | ++ (Cisplatin sensitization value>0.02 μM but <0.2 μM) |
| Cc1nnc(N2CCN(c3ccncc3NC(=O)c3c(N)nn4cc(F)cnc34)CC2)o1 [I-N-256, 2-amino-6-fluoro-N-(4-(4-(5-methyl-1,3,4-oxadiazol-2-yl)piperazin-1-yl)pyridin-3-yl)pyrazolo[1,5-a]pyrimidine-3-carboxamide] | ++ (Cisplatin sensitization value>0.02 μM but <0.2 μM) |
| CC(=O)N1CCC2(CCN(c3ccncc3NC(=O)c3c(N)nn4cc(F)cnc34)CC2)C1 [I-N-257, N-(4-(2-acetyl-2,8-diazaspiro[4.5]decan-8-yl)pyridin-3-yl)-2-amino-6-fluoropyrazolo[1,5-a]pyrimidine-3-carboxamide] | +++ (Cisplatin sensitization value of <0.02 μM) |
| Nc1nn2cc(F)cnc2c1C(=O)Nc1cnccc1N1CCN2C(=O)CC[C@@H]2C1 [I-N-258, (R)-2-amino-6-fluoro-N-(4-(6-oxohexahydropyrrolo[1,2-a]pyrazin-2(1H)-yl)pyridin-3-yl)pyrazolo[1,5-a]pyrimidine-3-carboxamide] | ++ (Cisplatin sensitization value>0.02 μM but <0.2 μM) |
| Cn1ccc2cncc(NC(=O)c3c(N)nn4cc(F)cnc34)c21 [I-N-259, 2-amino-6-fluoro-N-(1-methyl-1H-pyrrolo[3,2-c]pyridin-7-yl)pyrazolo[1,5-a]pyrimidine-3-carboxamide] | + (Cisplatin sensitization value>0.2 μM but <5 μM) |
| Cc1nonc1N1CCN(c2ccncc2NC(=O)c2c(N)nn3cc(F)cnc23)CC1 [I-N-260, 2-amino-6-fluoro-N-(4-(4-(4-methyl-1,2,5-oxadiazol-3-yl)piperazin-1-yl)pyridin-3-yl)pyrazolo[1,5-a]pyrimidine-3-carboxamide] | +++ (Cisplatin sensitization value of <0.02 μM) |
| COC(=O)N1CCN(c2c(F)cncc2NC(=O)c2c(N)nn3cc(F)cnc23)CC1 [I-N-261, methyl-4-(3-(2-amino-6-fluoropyrazolo[1,5-a]pyrimidine-3-carboxamido)-5-fluoropyridin-4-yl)piperazine-1-carboxylate] | +++ (Cisplatin sensitization value of <0.02 μM) |
| CC(=O)N1CCCC12CCN(c1ccncc1NC(=O)c1c(N)nn3cc(F)cnc13)CC2 [I-N-262, N-(4-(1-acetyl-1,8-diazaspiro[4.5]decan-8-yl)pyridin-3-yl)-2-amino-6-fluoropyrazolo[1,5-a]pyrimidine-3-carboxamide] | +++ (Cisplatin sensitization value of <0.02 μM) |
| Cc1nncn1-c1ccncc1NC(=O)c1c(N)nn2cc(F)cnc12 [I-N-263, 2-amino-6-fluoro-N-(4-(3-methyl-4H-1,2,4-triazol-4-yl)pyridin-3-yl)pyrazolo[1,5-a]pyrimidine-3-carboxamide] | + (Cisplatin sensitization value>0.2 μM but <5 μM) |
| Nc1nn2cc(F)cnc2c1C(=O)Nc1cnccc1N1CCCCCC1 [I-N-264, 2-amino-N-(4-(azepan-1-yl)pyridin-3-yl)-6-fluoropyrazolo[1,5-a]pyrimidine-3-carboxamide] | + (Cisplatin sensitization value>0.2 μM but <5 μM) |
| Cc1nnc(C2CCN(c3ccncc3NC(=O)c3c(N)nn4cc(F)cnc34)CC2)o1 [I-N-265, 2-amino-6-fluoro-N-(4-(4-(5-methyl-1,3,4-oxadiazol-2-yl)piperidin-1-yl)pyridin-3-yl)pyrazolo[1,5-a]pyrimidine-3-carboxamide] | ++ (Cisplatin sensitization value>0.02 μM but <0.2 μM) |
| COC1CCN(c2ccncc2NC(=O)c2c(N)nn3cc(F)cnc23)CC1 [I-N-266, 2-amino-6-fluoro-N-(4-(4-methoxypiperidin-1-yl)pyridin-3-yl)pyrazolo[1,5-a]pyrimidine-3-carboxamide] | +++ (Cisplatin sensitization value of <0.02 μM) |
| CN(C)CC1CCN(c2ccncc2NC(=O)c2c(N)nn3cc(F)cnc23)CC1 [I-N-267, 2-amino-N-(4-(4-((dimethylamino)methyl)piperidin-1-yl)pyridin-3-yl)-6-fluoropyrazolo[1,5-a]pyrimidine-3-carboxamide] | +++ (Cisplatin sensitization value of <0.02 μM) |
| Nc1nn2cc(F)cnc2c1C(=O)Nc1cnccc1N1CCC(c2nnco2)CC1 [I-N-268, N-(4-(4-(1,3,4-oxadiazol-2-yl)piperidin-1-yl)pyridin-3-yl)-2-amino-6-fluoropyrazolo[1,5-a]pyrimidine-3-carboxamide] | +++ (Cisplatin sensitization value of <0.02 μM) |
| Cc1ncn(-c2ccncc2NC(=O)c2c(N)nn3cc(F)cnc23)c1C [I-N-269, 2-amino-N-(4-(4,5-dimethyl-1H-imidazol-1-yl)pyridin-3-yl)-6-fluoropyrazolo[1,5-a]pyrimidine-3-carboxamide] | ++ (Cisplatin sensitization value>0.02 μM but <0.2 μM) |
| Nc1nn2cc(F)cnc2c1C(=O)Nc1cncc(F)c1N1CCCCC1 [I-N-270, 2-amino-6-fluoro-N-(5-fluoro-4-(piperidin-1-yl)pyridin-3-yl)pyrazolo[1,5-a]pyrimidine-3-carboxamide] | +++ (Cisplatin sensitization value of <0.02 μM) |
| Nc1nn2cc(F)cnc2c1C(=O)Nc1cnccc1N1CCC(S(=O)(=O)N2CCC2)CC1 [I-N-271, 2-amino-N-(4-(4-(azetidin-1-ylsulfonyl)piperidin-1-yl)pyridin-3-yl)-6-fluoropyrazolo[1,5-a]pyrimidine-3-carboxamide] | +++ (Cisplatin sensitization value of <0.02 μM) |
| CN1CCOC2(CCN(c3c(F)cncc3NC(=O)c3c(N)nn4cc(F)cnc34)CC2)C1 [I-N-272, 2-amino-6-fluoro-N-(5-fluoro-4-(4-methyl-1-oxa-4,9-diazaspiro[5.5]undecan-9-yl)pyridin-3-yl)pyrazolo[1,5-a]pyrimidine-3-carboxamide] | +++ (Cisplatin sensitization value of <0.02 μM) |
